Usually inhibition stands for the change of the read-out against control, counted positive when it falls. As a reminder, the IC50 is the concentration that gives 50% inhibition.

One series addresses T1, STAT3-SH2 domain (Homo sapiens, UniProt P40763).
T1 construct: First, 75 nM of each SH2-containing protein was incubated with the test compound for 15 min
Briefly: AlphaScreen-based assay, STAT3-SH2 domain / pTyr peptide binding. Conditions: for inhibition at 30 µM: a = mean of two experiments; for IC50: read-out: STAT3 IC50 (μM) ± SD. A general note: In Alpha technology, singlet oxygen from a donor bead excites a nearby acceptor bead.

The next series addresses T2, STAT1 (Homo sapiens, UniProt P42224).
T2 construct: First, 75 nM of each SH2-containing protein was incubated with the test compound for 15 min
T2 sequence (P42224 1-750): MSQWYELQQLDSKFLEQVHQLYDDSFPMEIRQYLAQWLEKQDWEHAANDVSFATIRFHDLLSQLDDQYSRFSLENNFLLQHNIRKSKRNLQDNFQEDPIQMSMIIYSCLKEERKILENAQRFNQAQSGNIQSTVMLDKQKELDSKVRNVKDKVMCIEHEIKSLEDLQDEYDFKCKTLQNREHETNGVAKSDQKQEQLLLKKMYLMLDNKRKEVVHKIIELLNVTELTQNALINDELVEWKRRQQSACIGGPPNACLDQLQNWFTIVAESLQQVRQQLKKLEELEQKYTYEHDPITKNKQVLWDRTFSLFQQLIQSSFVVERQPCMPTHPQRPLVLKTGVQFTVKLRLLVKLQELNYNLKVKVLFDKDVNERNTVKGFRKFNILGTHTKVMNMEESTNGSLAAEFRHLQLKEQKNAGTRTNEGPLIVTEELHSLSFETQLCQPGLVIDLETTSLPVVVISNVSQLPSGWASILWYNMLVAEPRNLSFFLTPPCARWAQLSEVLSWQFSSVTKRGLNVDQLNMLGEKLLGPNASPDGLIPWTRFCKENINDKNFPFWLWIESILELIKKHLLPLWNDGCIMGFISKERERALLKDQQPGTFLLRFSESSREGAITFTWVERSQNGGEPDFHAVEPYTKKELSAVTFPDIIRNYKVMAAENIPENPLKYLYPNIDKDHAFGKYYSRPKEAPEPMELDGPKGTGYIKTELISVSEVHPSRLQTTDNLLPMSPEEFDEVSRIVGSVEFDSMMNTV
The series can be described thus: AlphaScreen-based assay, selectivity versus STAT1. It counts as binding. Particulars: for IC50: read-out: STAT1 IC50 (μM) ± SD. The procedure: (§1) STAT3 inhibitory activity of the described compounds was tested by the AlphaScreen-based assay to evaluate the potential inhibition of the interaction between STAT3-SH2 domain and pTyr-containing peptides according to the previously reported procedure. For the most interesting compounds, selectivity tests versus STAT1 and Grb2 (Growth factor receptor-bound protein 2) were performed. AlphaScreen is a bead-based nonradioactive assay system for detecting biomolecular interactions in a microtiter plate format. Binding of biological partners brings donor and acceptor beads into close proximity and as result, a luminescent signal between 520 and 620 nm is produced. The AlphaScreen-based assays were typically performed in a final reaction volume of 25 μl of the assay buffer containing 10 mM HEPES–NaOH (pH 7.4), 50 mM NaCl, 1 mM EDTA (pH 8.0), 0.1% NP-40, and 10 ng/μl BSA in a 96-well microtiter plate at 25 °C. Phospho-Tyr (pTyr) peptide probes used in this study were 5-carboxyfluorescein (FITC)-GpYLPQTV for STAT3, FITC-GpYDKPHVL for STAT1, and FITC-PSpYVNVQN for Grb2. First, 75 nM of each SH2-containing protein was incubated with the test compound for 15 min. Each protein sample was then incubated for 90 min with 50 nM of its corresponding FITC-pTyr peptide, and mixed with streptavidin-coated donor beads and anti-FITC acceptor beads simultaneously before detection at 570 nm using EnVisonXcite (Perkin Elmer, Waltham, MA).

In series [1] the test system is T3, Grb2 (Growth factor receptor-bound protein 2).
T3 construct: First, 75 nM of each SH2-containing protein was incubated with the test compound for 15 min
Briefly: AlphaScreen-based assay, selectivity versus Grb2. Particulars: a = mean of two experiments. It counts as binding. The protocol:
as §1

The subject of the next series is HCT-116 cell line. Briefly: MTT assay, cytotoxicity on HCT-116 cell line. It counts as cell-based, human. Particulars: for antiproliferative / cytotoxic activity on HCT-116 cell line (in words): 48 h treatment; for IC50: Homo sapiens, HCT-116, 48 h treatment, NA: not active up to 200 μM, read-out: HCT-116 IC50 (μM) ± SD. The protocol:
The colorectal cancer HCT116 cells were cultured in McCoy’s media supplemented with penicillin (10,000 U/ml), streptomycin (10 mg/ml), nonessential amino acid, and 10% fetal calf serum (FCS). Cells were then seeded in 48 well plates and, after 24 h, they were incubated with different concentration of newly synthesized compounds dissolved in DMSO.
After 48 h of treatment, medium was removed from each well, and cells were incubated with fresh medium, containing 10% (v/v) of MTT (3-(4,5-dimethyl-2-thiazolyl)-2,5-diphenyl-2H-tetrazolium bromide) reagent. MTT, by interacting with vital cells mitochondria, is converted to formazan, with the development of visible purple crystals. After dissolving these crystals with isopropanol-HCl, the quantification of the conversion of MTT to formazan is determined through spectrophotometer analysis (595 nM), as previously described.
(In general: Tetrazolium assays rely on reduction of a dye to a coloured formazan, in cell work by metabolically active cells.)

In a further series the test system is STAT3 homodimers. Also on record: method as in PMID 17463090. Conditions: read-out: IC50, blocked the formation of STAT3 homodimers; cited from earlier work.

Structures can show the parent of a compound that is named as a salt. Marks after values point to notes of the source that are not given here.

T1 sequence (P40763 whole entry, the tested form may be a part): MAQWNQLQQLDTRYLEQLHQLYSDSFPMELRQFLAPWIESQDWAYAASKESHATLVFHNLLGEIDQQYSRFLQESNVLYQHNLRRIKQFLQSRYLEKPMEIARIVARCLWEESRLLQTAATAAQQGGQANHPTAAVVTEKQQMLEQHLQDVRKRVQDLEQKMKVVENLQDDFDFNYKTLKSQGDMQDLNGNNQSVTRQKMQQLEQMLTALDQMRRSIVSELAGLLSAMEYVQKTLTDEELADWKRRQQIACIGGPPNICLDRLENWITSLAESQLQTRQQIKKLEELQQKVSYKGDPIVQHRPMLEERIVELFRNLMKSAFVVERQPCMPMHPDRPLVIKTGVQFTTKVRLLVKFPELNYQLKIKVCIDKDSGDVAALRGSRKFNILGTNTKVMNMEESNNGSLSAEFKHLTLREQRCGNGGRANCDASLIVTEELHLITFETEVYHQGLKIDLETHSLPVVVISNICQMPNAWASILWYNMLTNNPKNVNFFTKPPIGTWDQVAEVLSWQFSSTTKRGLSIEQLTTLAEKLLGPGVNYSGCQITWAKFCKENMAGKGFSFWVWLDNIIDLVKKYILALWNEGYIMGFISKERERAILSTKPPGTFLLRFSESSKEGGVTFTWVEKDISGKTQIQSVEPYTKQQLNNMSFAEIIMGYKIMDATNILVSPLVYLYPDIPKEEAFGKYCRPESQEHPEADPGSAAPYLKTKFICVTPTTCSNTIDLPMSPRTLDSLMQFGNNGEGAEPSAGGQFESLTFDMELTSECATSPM

As for `CC1=C(CC(=O)OCCSS(C)(=O)=O)c2cc(F)ccc2/C1=C\c1ccc([S+](C)[O-])cc1` (centres unmarked) [Compound 3, (Z)-5-fluoro-2-methyl-1-[[4-(methylsulfinyl)phenyl]methylene]-1H-indene-3-acetic acid 2-methanesulfonylsulfanylethyl ester], on STAT3-SH2 domain, the inhibition at 3 µM is 105 ± 8.2%, the inhibition at 30 µM worked out at 102% and the IC50 turned out to be 0.5 ± 0.1 µM. For the same compound, at STAT1, the inhibition at 3 µM is 46.7 ± 1.1% and the IC50 is over 3 µM. The “Grb2 % Inhibition 3 μM” value in series [1] is on record as 74.6^a %. In the series on HCT-116 cell line, the “antiproliferative / cytotoxic activity on HCT-116 cell line (in words)” value (“antiproliferative / cytotoxic activity” below) is given as “moderate antiproliferative activity” and the IC50 is 104 ± 10.9 µM.

In the case of `CS(=O)(=O)SCCN` [Compound 10, S-(2-aminoethyl) methanesulfonothioate, reference compound], the IC50 on STAT3-SH2 domain and at STAT1 was over 3 µM each time. In addition, the “Grb2 % Inhibition 3 μM” value in series [1] is 12.3^a %.

As for `CS(=O)(=O)CSC(=O)c1ccc(N)cc1O` [Compound 8, S-((methylsulfonyl)methyl) 4-amino-2-hydroxybenzothioate], at STAT3-SH2 domain, the inhibition at 30 µM worked out at 41.8 ± 0.9% and the IC50 was over 30 µM. Moreover, the “inhibition / binding of STAT3-SH2 domain (in words)” value on STAT3-SH2 domain (highest concentration tested 30 μM) was “moderately inhibited”. Also, in the series with HCT-116 cell line, the “antiproliferative / cytotoxic activity” value is listed as “good cytotoxic activity” and the half-maximal inhibitory concentration (IC50) is 26.3 ± 11.6 µM.

For `CC(=O)Oc1ccccc1C(=O)O` [ASA, acetyl salicylic acid, reference compound], on STAT3-SH2 domain, the inhibition at 30 µM is 3.8 ± 1.9% and the half-maximal inhibitory concentration (IC50) is over 30 µM. Besides, on STAT1, the inhibition at 30 µM came out at 6.3 ± 1.7% and the 50% inhibitory concentration (IC50) is over 30 µM.

With `CC1=C(CC(=O)O)c2cc(F)ccc2/C1=C\c1ccc([S+](C)[O-])cc1` (centres unmarked) [Sulindac, sulindac, reference compound], at STAT3-SH2 domain, the inhibition at 30 µM stood at 4.2 ± 3.2% and the IC50 is over 30 µM. Further, on STAT1, the inhibition at 30 µM amounted to 4.9 ± 2% and the IC50 was over 30 µM.

With `CCCC(CCC)C(=O)O` [VA, valproic acid, reference compound], on STAT3-SH2 domain, the inhibition at 30 µM worked out at 0.2 ± 3.2% and the IC50 is over 30 µM. At STAT1, the inhibition at 30 µM was determined as 2.7 ± 3% and the IC50 is over 30 µM.

For the compound `CS(=O)(=O)SCCOC(=O)Cc1ccccc1Nc1c(Cl)cccc1Cl` [Compound 5, 2-((methylsulfonyl)thio)ethyl 2-(2-((2,6-dichlorophenyl)amino)phenyl)acetate], on STAT3-SH2 domain, the inhibition at 3 µM was 110 ± 2.2%, the inhibition at 30 µM stood at 102% and the IC50 was 0.5 ± 0.2 µM. Also, on STAT1, the inhibition at 3 µM came to 35.4 ± 2.1% and the IC50 was over 3 µM. In series [1], the “Grb2 % Inhibition 3 μM” value is 77.8^a %. Also, in the series on HCT-116 cell line, the “antiproliferative / cytotoxic activity” value was “inefficacious at concentration up to 100–200 μM”.

Take `O=C(O)Cc1ccccc1Nc1c(Cl)cccc1Cl` [Diclofenac sodium salt, reference compound]: on STAT3-SH2 domain, the inhibition at 30 µM stood at 4.5 ± 2.4% and the IC50 is over 30 µM. In addition, at STAT1, the inhibition at 30 µM was 6.5 ± 2.1% and the 50% inhibitory concentration (IC50) is over 30 µM.

Take `CCCC(CCC)C(=O)OCCSS(C)(=O)=O` [Compound 1, 2-((Methylsulfonyl)thio)ethyl 2-propylpentanoate]: at STAT3-SH2 domain, the inhibition at 3 µM is 101 ± 2.2%, the inhibition at 30 µM was 102% and the IC50 is 0.7 ± 0.1 µM. Besides, on STAT1, the inhibition at 3 µM turned out to be 44.9 ± 10.5% and the IC50 was over 3 µM. The “Grb2 % Inhibition 3 μM” value in series [1] is 76.0^a %. In addition, in the series on HCT-116 cell line, the “antiproliferative / cytotoxic activity” value is “moderate antiproliferative activity” and the IC50 amounted to 136 ± 2.2 µM.

For `Cc1ccc(S(=O)(=O)OCC(=O)Nc2ccc(C(=O)O)c(O)c2)cc1` [Compound S3I-301, reference compound], the inhibition at 30 µM at STAT3-SH2 domain came out at 7.2 ± 1.7%. In addition, the half-inhibitory concentration (IC50) with HCT-116 cell line was 39.5 ± 7.7 µM; in the series with STAT3 homodimers, 86 µM.

For `CS(=O)(=O)SCCO` [Compound 9, S-(2-hydroxyethyl) methanesulfonothioate, reference compound], the IC50 on STAT3-SH2 domain is over 30 µM.

`CC(=O)Oc1ccccc1C(=O)OCCSS(C)(=O)=O` [Compound 4, 2-Acetoxybenzoic acid 2-methanesulfonylsulfanyl-ethyl ester]: at STAT3-SH2 domain, the inhibition at 3 µM is 93.5 ± 2.6%, the inhibition at 30 µM is 100 ± 0.1% and the half-maximal inhibitory concentration (IC50) came to 1.4 ± 0.1 µM. Moreover, at STAT1, the inhibition at 3 µM is 44.2 ± 0.8%, the inhibition at 30 µM was 99.8 ± 0.4% and the IC50 was 3.6 µM. The “Grb2 % Inhibition 3 μM” value in series [1] is 15.9^a %. Moreover, in the series on HCT-116 cell line, the “antiproliferative / cytotoxic activity” value is on record as “moderate antiproliferative activity” and the IC50 was 87.9 ± 11.4 µM.

For `CCCC(CCC)C(=O)NCCSS(C)(=O)=O` [Compound 2, S-(2-(2-propylpentanamido)ethyl) methanesulfonothioate], on STAT3-SH2 domain, the inhibition at 3 µM was determined as 67.2 ± 11%, the inhibition at 30 µM is 106% and the IC50 stood at 1.4 ± 0.1 µM. At STAT1, the inhibition at 3 µM is 1.9 ± 2.2% and the IC50 was over 3 µM. Moreover, in series [1], the “Grb2 % Inhibition 3 μM” value is −23.3^a %. In addition, the “antiproliferative / cytotoxic activity” value in the series on HCT-116 cell line is recorded as “inefficacious at concentration up to 100–200 μM”.

Turning to `Cc1ccc(S(=O)(=O)SCC(=O)Nc2ccc(C(=O)O)c(O)c2)cc1` [Compound 6, 2-Hydroxy-4-(2-(tosylthio)acetamido)benzoic acid], on STAT3-SH2 domain, the inhibition at 3 µM came to 46 ± 0.8%, the inhibition at 30 µM is 58.4 ± 1.1% and the IC50 is 4.9 ± 0.4 µM. At STAT1, the inhibition at 3 µM came to 18 ± 0.2%, the inhibition at 30 µM was 39.6 ± 0.8% and the IC50 was over 30 µM. The IC50 with HCT-116 cell line is over 200 µM.

These data come from PMC6009886, “Methanethiosulfonate derivatives as ligands of the STAT3-SH2 domain” (Journal of Enzyme Inhibition and Medicinal Chemistry, 2017).
